Reference: patent publication US20100227921A1, “AMINO ACID AND PEPTIDE CARBAMATE PRODRUGS OF […] USES THEREOF” (SHIRE LLC, priority 2009, published 2010)
“And” between values parts separate entries of the source, which are not always exact repeats. Equal entries are not always repeated. Where two headings read alike, the source gives them in different places. Marks after values point to notes of the source that are not given here.

Columns and labels:
[1] = Comparative in vivo bioavailability study in the dog (oral gavage, plasma LC-MS-MS); conditions: for half-life / AUC / AUC(0-t) / Cmax / Tmax: Beagle, plasma, po
Experimental: Test substances (i.e., tapentadol (1 mg/kg) and tapentadol valine carbamate (0.8 mg tapentadol base equivalents/kg)) were administered by oral gavage to a group of five dogs (dog nos. 1, 2, 3, 4 and 5) in a two-way crossover design. The characteristics of the test animals are set out in Table 3.
(§1) Blood samples were taken at various times after administration and submitted to analysis for the parent drug and pro-drug using a validated LC-MS-MS assay. Pharmacokinetic parameters derived from the plasma analytical data were determined using Win Nonlin.

[2] = tested on: guinea pig small intestine myenteric plexus longitudinal muscle; assay: Electrical field stimulation response of isolated guinea pig small intestine smooth muscle (ex vivo); conditions: Cavia porcellus; isolated guinea pig ileum, EFS 14 Hz, non-cumulative 10 nM-30 μM; read-out: approximate EC50, effect on electrical field stimulation response
Experimental: Strips of guinea pig small intestine myenteric plexus longitudinal muscle and mounted between platinum ring electrodes. The tissue was stretched to a steady tension of about 1 g and changes in force production were recorded using sensitive transducers.
The optimal voltage for stimulation was determined while the tissue was paced with electrical field stimulation (EFS) at 14 Hz, with a pulse width of 0.5 msec (Trains of pulses for 20 seconds, every 50 seconds).
EFS at optimal voltage continued throughout the protocol (stable responses=“baseline measurement of EFS”).
The 3 test conditions employed were as follows:
(1) Vehicle (deionised water, added at equivalent volume additions to test articles), (2) Tapentadol at 6 concentrations (10 nM, 100 nM, 1 μM, 3 μM, 10 μM & 30 μM) (3) Tapentadol valine carbamate at 6 concentrations (10 nM, 100 nM, 1 μM, 3 μM, 10 μM, & 30 μM).
Following 10 minutes of baseline EFS, first addition of test article or vehicle (deionized water) was performed.
Test concentrations were added in a non-cumulative manner with PSS washes between each addition. Next, TTX (Na+ channel blocker) was added to confirm EFS responses were elicited via nerve stimulation. EFS was then stopped.

[3] = Comparative bioavailability after oral administration to rats (plasma LC-MS-MS); assay type: in vivo; conditions: male rat, oral tapentadol 10 mg free base equiv/kg, individual animals 1-5 (5 outlier)
Experimental: Test substances, i.e., tapentadol or tapentadol valine carbamate were administered by oral gavage to groups of male Sprague Dawley rats.
as §1

[4] = oral tapentadol HCl 1 mg tapentadol base equiv/kg, individual dogs 1-5
[5] = oral tapentadol valine carbamate 0.8 mg tapentadol base equiv/kg, individual dogs 1-5

CC[C@@H](c1cccc(O)c1)[C@@H](C)CN(C)C (racemic) [Tapentadol, (−)-(1R,2R)-3-(3-dimethyl-amino-1-ethyl-2-methyl-propyl)-phenol]
half-life ([1]; 0.8 mg/kg, oral tapentadol valine carbamate 0.8 mg tapentadol base equiv/kg, calculated as ln2/mean k, read-out: t½ of tapentadol (converted)): 48 min | AUC ([1]; 0.8 mg/kg, oral tapentadol valine carbamate 0.8 mg tapentadol base equiv/kg, individual dogs 1-5, read-out: AUC of tapentadol): 31.4 ng·h/mL | AUC(0-t) ([1]; 0.8 mg/kg, oral tapentadol valine carbamate 0.8 mg tapentadol base equiv/kg, individual dogs 1-5, read-out: AUCt of tapentadol): 29.5 ng·h/mL | Cmax ([1]; 0.8 mg/kg, oral tapentadol valine carbamate 0.8 mg tapentadol base equiv/kg, individual dogs 1-5, read-out: Cmax of tapentadol): 13.7 ng/mL | Tmax ([1]; 0.8 mg/kg, oral tapentadol valine carbamate 0.8 mg tapentadol base equiv/kg, individual dogs 1-5, read-out: Tmax of tapentadol): 60 min | half-life ([1]; 0.8 mg/kg, oral tapentadol valine carbamate 0.8 mg tapentadol base equiv/kg, individual dogs 1-5, read-out: t½ of tapentadol (converted)): 48 min | AUC ([1]; 0.8 mg/kg, oral tapentadol valine carbamate 0.8 mg tapentadol base equiv/kg, mean of 5 dogs, read-out: AUC of tapentadol): 34.2 ng·h/mL | AUC(0-t) ([1]; 0.8 mg/kg, oral tapentadol valine carbamate 0.8 mg tapentadol base equiv/kg, mean of 5 dogs, read-out: AUCt of tapentadol): 32 ng·h/mL | Cmax ([1]; 0.8 mg/kg, oral tapentadol valine carbamate 0.8 mg tapentadol base equiv/kg, mean of 5 dogs, read-out: Cmax of tapentadol): 14.5 ng/mL | Tmax ([1]; 0.8 mg/kg, oral tapentadol valine carbamate 0.8 mg tapentadol base equiv/kg, median of 5 dogs, read-out: Tmax of tapentadol): 60 min | half-life ([1]; 1 mg/kg, oral tapentadol HCl 1 mg tapentadol base equiv/kg, calculated as ln2/mean k, read-out: t½ of tapentadol (converted)): 72 min | Tmax ([1]; 1 mg/kg, oral tapentadol HCl 1 mg tapentadol base equiv/kg, individual dogs 1-5, read-out: Tmax of tapentadol): 30 min | AUC ([1]; 1 mg/kg, oral tapentadol HCl 1 mg tapentadol base equiv/kg, mean of 5 dogs, read-out: AUC of tapentadol): 2.78 ng·h/mL | AUC(0-t) ([1]; 1 mg/kg, oral tapentadol HCl 1 mg tapentadol base equiv/kg, mean of 5 dogs, read-out: AUCt of tapentadol): 2.56 ng·h/mL | Cmax ([1]; 1 mg/kg, oral tapentadol HCl 1 mg tapentadol base equiv/kg, mean of 5 dogs, read-out: Cmax of tapentadol): 1.45 ng/mL | Tmax ([1]; 1 mg/kg, oral tapentadol HCl 1 mg tapentadol base equiv/kg, median of 5 dogs, read-out: Tmax of tapentadol): 30 min | AUC of tapentadol [1, 4]: 1.96 ng·h/mL and 2.02 ng·h/mL and 3.38 ng·h/mL and 4.53 ng·h/mL and 1.99 ng·h/mL | AUCt of tapentadol [1, 4]: 1.84 ng·h/mL and 1.88 ng·h/mL and 2.68 ng·h/mL and 4.48 ng·h/mL and 1.92 ng·h/mL | Cmax of tapentadol [1, 4]: 0.75 ng/mL and 1.77 ng/mL and 1.27 ng/mL and 2.39 ng/mL and 1.08 ng/mL | T>50%Cmax of tapentadol [1, 4]: 1.5 h (2×) and 0 h and 0.5 h (2×) | T>50%Cmax of tapentadol ([1]; oral tapentadol HCl 1 mg tapentadol base equiv/kg, median of 5 dogs): 0.5^a h | AUC of tapentadol [1, 5]: 25.5 ng·h/mL and 39.9 ng·h/mL and 29.1 ng·h/mL and 45.0 ng·h/mL | AUCt of tapentadol [1, 5]: 22.8 ng·h/mL and 36.4 ng·h/mL and 28.3 ng·h/mL and 43.2 ng·h/mL | Cmax of tapentadol [1, 5]: 11.1 ng/mL and 17.0 ng/mL and 11.7 ng/mL and 19.3 ng/mL | T>50%Cmax of tapentadol [1, 5]: 1 h (3×) and 1.5 h (2×) | Tmax of tapentadol [1, 5]: 120 min | t½ of tapentadol [1, 5]: 66 min and 54 min and 60 min and 36 min | T>50%Cmax of tapentadol ([1]; oral tapentadol valine carbamate 0.8 mg tapentadol base equiv/kg, median of 5 dogs): 1^a h | EC50 [2]: ~0.2 µM | Plasma concentration of tapentadol ([3]; 0.5 h): 003.53 ng/mL and 001.60 ng/mL and 2.33 ng/mL and 003.48 ng/mL and 70.5 ng/mL | Plasma concentration of tapentadol ([3]; 1 h): 3.98 ng/mL and 2.32 ng/mL and 5.21 ng/mL and 5.87 ng/mL and 52.6 ng/mL | Plasma concentration of tapentadol ([3]; 2 h): 2.70 ng/mL and 2.28 ng/mL and 1.72 ng/mL and 3.06 ng/mL and 22.7 ng/mL | Plasma concentration of tapentadol ([3]; 3 h): 1.75 ng/mL and 1.65 ng/mL and 1.68 ng/mL and 2.20 ng/mL and 10.9 ng/mL | Plasma concentration of tapentadol ([3]; 4 h): 1.65 ng/mL and 3.61 ng/mL and 1.67 ng/mL and 2.62 ng/mL and 9.10 ng/mL
